Columns and labels:
Assay type in all cases: cell-based, human
[1] = tested on: OPN production from CD14^+ cells; assay: LPS stimulation-induced OPN production in CD14^+ cells; conditions: LPS
Protocol: (§1) Cryopreserved PBMCs were quickly thawed in a 37° C. thermostat and added to a tube containing medium. After centrifugation (at room temperature at 300 g for 10 minutes) to remove the supernatant, the cells were suspended again in the medium, followed by counting the number of viable cells. The cell suspension was centrifuged (at room temperature at 300 g for 10 minutes) to remove the supernatant, followed by addition of MACS Buffer to suspend the cells, to which Human CD14 MicroBeads were further added. After being allowed to stand on ice for 15 minutes, the cell suspension was diluted with MACS Buffer and centrifuged (at room temperature at 300 g for 10 minutes) to remove the supernatant. MACS Buffer was added to the tube, and the cells were suspended and then applied to a separatory column to separate CD14^+ cells. The CD14^+ cell fraction was diluted with the medium and then centrifuged (at room temperature at 300 g for 10 minutes). The supernatant was removed and the cells were suspended in the medium (1 mL), followed by counting the number of viable cells. The cell suspension was adjusted with the medium to 2.4×10^5 or 3×10^5 cells/mL and seeded in a 96-well plate (2.4×10^4 cells/well), which was then allowed to stand in a CO2 incubator for 1 to 2 hours.
The collected culture supernatants were quantified for OPN using Human OPN DuoSet ELISA.

[2] = tested on: IL-1β production in CD14^+ cells; assay: LPS stimulation-induced IL-1β production in CD14^+ cells; conditions: LPS
Protocol: as §1
The culture supernatants collected in 1.2.10 were quantified for IL-1β using Human IL-1β DuoSet ELISA.

[3] = tested on: IL-18 production from LPS-pretreated CD14^+ cells; assay: ATP stimulation-induced IL-18 production from LPS-pretreated CD14^+ cells; conditions: LPS-pretreated CD14^+ cells, ATP
Protocol: Cryopreserved PBMCs were quickly thawed in a 37° C. thermostat and added to a tube containing medium. After centrifugation (at room temperature at 300 g for 10 minutes) to remove the supernatant, the cells were suspended again in the medium, followed by counting the number of viable cells. The cell suspension was centrifuged (at room temperature at 300 g for 10 minutes) to remove the supernatant, followed by addition of MACS Buffer to suspend the cells, to which Human CD14 MicroBeads were further added. After being allowed to stand on ice for 15 minutes, the cell suspension was diluted with MACS Buffer and centrifuged (at room temperature at 300 g for 10 minutes) to remove the supernatant.
MACS Buffer was added to the tube, and the cells were suspended and then applied to a separatory column to separate CD14^+ cells. The CD14^+ cell fraction was diluted with the medium and then centrifuged (at room temperature at 300 g for 10 minutes). The supernatant was removed and the cells were suspended in the medium (1 mL), followed by counting the number of viable cells. The cell suspension adjusted with the medium to 2×10^6 cells/mL was seeded in a 96-well plate (1×10^5 cells/well) and allowed to stand in a CO2 incubator for 1 to 2 hours. […] The cells were then stimulated with LPS (final concentration: 500 ng/mL) for 6 hours at 37° C. and an ATP solution (final concentration: 5 mM) was added thereto, and the 96-well plate was further allowed to stand in a CO2 incubator for 2 hours to collect the culture supernatants.
The collected culture supernatants were quantified for IL-18 using Human IL-18 DuoSet ELISA.

[4] = tested on: VEGF production from macrophages; assay: LPS stimulation-induced VEGF production in macrophages; conditions: Macrophages, LPS
Protocol: CD14^+ cells were cultured in 20 ng/mL M-CSF-containing RPMI medium at 37° C. for 5 days to induce differentiation into macrophages (during which the medium was replaced once every two days with fresh 20 ng/mL M-CSF-containing RPMI medium). […] The macrophages were then stimulated with LPS (final concentration: 100 ng/mL) or RPMI medium alone at 37° C. for 3 days, followed by collecting the culture supernatants. The collected culture supernatants were quantified for VEGF using Human VEGF DuoSet ELISA.

MCP-1 production = assay: CRS toxicity evaluation system using CAR-T cells: MCP-1; conditions: CRS toxicity evaluation system using CAR-T cells
Protocol: (§2) The supernatants were collected at 72 hours after the initiation of culture, and various cytokines in each supernatant were measured by FACS multiplex assay.

IL-8 production = assay: CRS toxicity evaluation system using CAR-T cells: IL-8; conditions: CRS toxicity evaluation system using CAR-T cells
Protocol: as §2

TNF-α production = assay: CRS toxicity evaluation system using CAR-T cells: TNF-α; conditions: CRS toxicity evaluation system using CAR-T cells
Protocol: as §2

IL-1β production = assay: CRS toxicity evaluation system using CAR-T cells: IL-1β; conditions: CRS toxicity evaluation system using CAR-T cells
Protocol: as §2

Tocilizumab: interleukin (IL)-6R antibody (tocilizumab) approved at the same time as CAR-T cell therapy
no suppressive effect: suppressive effect on OPN production [1] | suppressive effect on IL-1β production [2] | suppressive effect on IL-18 production [3] | effect on VEGF production from macrophages [4] | suppressive effect on MCP-1 production (MCP-1 production) | suppressive effect on IL-8 production (IL-8 production) | suppressive effect on TNF-α (TNF-α production) | suppressive effect on IL-1β (IL-1β production)

From patent US11744830B2, “Ameliorative agent for cytokine release syndrome and so on” (TORII PHARMACEUTICAL CO., LTD., priority 2018, dated 2023)
